Here are results for 29 substances from patent publication US8153360B2, “Flavivirus fusion inhibitors” (The Administrators of the Tulane Educational Fund, priority 2002, dated 2012).

The subject of assay [1] is pseudotype expressing the envelope glycoprotein of murine leukemia virus (MLV). Nature of the assay: MLV pseudotype infectivity, luciferase activity (peptide/cytotoxicity control). The assay is classed as cell-based. As to conditions: peptide about 25 μM (asterisked peptides 10 μM or less); for MLV number of luciferase units (lumens) produced after infection: 72 h at 37° C., vehicle 439,158; for Percent inhibition (MLV pseudotype infectivity): relative to DMSO vehicle.

Assay [2] relates to H77-E1E2 pseudotype expressing envelope glycoproteins E1 and E2 of the H77 strain of HCV. Description: HCV pseudotype infectivity, luciferase activity of cell lysates. The assay is classed as cell-based, hepatitis C virus. Conditions: peptide about 25 μM (asterisked peptides 10 μM or less); for H77-E1E2 number of luciferase units (lumens) produced after infection: 72 h at 37° C., vehicle 113,733; for Percent Inhibition (H77-E1E2 HCV pseudotype infectivity): relative to DMSO vehicle.

For assay [3], the system named is HIV-1. Conditions: cited from earlier work.
Assay [4] concerns HIV-1. As to conditions: preliminary results from phase III clinical trials; cited from earlier work.

As for AALVVAQLLRIPQAIMDM [Peptide 73], in assay [1], the “MLV number of luciferase units (lumens) produced after infection” value (“MLV number of luciferase units” for short) was 433,001 luciferase units (lumens) and the “Percent inhibition (MLV pseudotype infectivity)” value came out at 1.40%. The “H77-E1E2 number of luciferase units (lumens) produced after infection” value (“H77-E1E2 number of luciferase units” below) in assay [2] was 100,666 luciferase units (lumens).

As to AHWGVLAGIKYFSMVGNW [Peptide 76], in assay [1], the “MLV number of luciferase units” value is recorded as 473,757 luciferase units (lumens) and the “Percent inhibition (MLV pseudotype infectivity)” value was −7.88%. For the same substance, in assay [2], the “H77-E1E2 number of luciferase units” value is 96,283 luciferase units (lumens).

Regarding ALYVGDLCGSVFLVGQLF [Peptide 65], in assay [1], the “MLV number of luciferase units” value is recorded as 491,789 luciferase units (lumens) and the “Percent inhibition (MLV pseudotype infectivity)” value is −11.98%. Besides, the “H77-E1E2 number of luciferase units” value in assay [2] was 87,726 luciferase units (lumens).

For CGSVFLVGQLFTFSPRHH [Peptide 66], in assay [1], the “MLV number of luciferase units” value was 189,683 luciferase units (lumens) and the “Percent inhibition (MLV pseudotype infectivity)” value came out at 56.81%. Also, the “H77-E1E2 number of luciferase units” value in assay [2] is given as 23,387 luciferase units (lumens).

Consider DAILHTPGCVPCVREGNA [Peptide 57], for which, in assay [1], the “MLV number of luciferase units” value is reported as 331,852 luciferase units (lumens) and the “Percent inhibition (MLV pseudotype infectivity)” value came to 24.44%. Also, in assay [2], the “H77-E1E2 number of luciferase units” value is 169,860 luciferase units (lumens).

Regarding GCVPCVREGNASRCWVAV [Peptide 58], in assay [1], the “MLV number of luciferase units” value is 329,895 luciferase units (lumens) and the “Percent inhibition (MLV pseudotype infectivity)” value worked out at 24.98%. Also, the “H77-E1E2 number of luciferase units” value in assay [2] was 118,767 luciferase units (lumens).

As to GIKYFSMVGNWAKVLVVL [Peptide 77], in assay [1], the “MLV number of luciferase units” value is listed as 321,076 luciferase units (lumens) and the “Percent inhibition (MLV pseudotype infectivity)” value was determined as 26.89%. Besides, in assay [2], the “H77-E1E2 number of luciferase units” value is listed as 56,425 luciferase units (lumens).

Regarding GQLFTFSPRHHWTTQDCN [Peptide 67], in assay [1], the “MLV number of luciferase units” value is reported as 357,577 luciferase units (lumens) and the “Percent inhibition (MLV pseudotype infectivity)” value stood at 28.58%. Besides, the “H77-E1E2 number of luciferase units” value in assay [2] is on record as 64,601 luciferase units (lumens).

Turning to GSATLCSALYVGDLCGSV [Peptide 64], in assay [1], the “MLV number of luciferase units” value was 316,948 luciferase units (lumens) and the “Percent inhibition (MLV pseudotype infectivity)” value came to 27.83%. Besides, the “H77-E1E2 number of luciferase units” value in assay [2] is listed as 113,108 luciferase units (lumens).

Consider HRMANMMMNWSPTAALV [Peptide 71], for which, in assay [1], the “MLV number of luciferase units” value is recorded as 533,765 luciferase units (lumens) and the “Percent inhibition (MLV pseudotype infectivity)” value is −21.54%. For the same substance, the “H77-E1E2 number of luciferase units” value in assay [2] is 83,489 luciferase units (lumens).

For the substance IMDMIAGAHWGVLAGIKY [Peptide 75], in assay [1], the “MLV number of luciferase units” value is on record as 420,026 luciferase units (lumens) and the “Percent inhibition (MLV pseudotype infectivity)” value was 4.36%. Also, the “H77-E1E2 number of luciferase units” value in assay [2] is 113,359 luciferase units (lumens).

Regarding LLRIPQAIMDMIAGAHWG [Peptide 74], in assay [1], the “MLV number of luciferase units” value was 467,876 luciferase units (lumens) and the “Percent inhibition (MLV pseudotype infectivity)” value is recorded as −6.54%. The “H77-E1E2 number of luciferase units” value in assay [2] is given as 32,888 luciferase units (lumens).

Consider LPTTQLRRHIDLLVGSAT [Peptide 62], for which, in assay [1], the “MLV number of luciferase units” value was 415,014 luciferase units (lumens) and the “Percent inhibition (MLV pseudotype infectivity)” value came out at 5.50%. Moreover, the “H77-E1E2 number of luciferase units” value in assay [2] was 115,966 luciferase units (lumens).

As for LVVLLLFAGVDAETHVTG [Peptide 79], in assay [1], the “MLV number of luciferase units” value is recorded as 740,034 luciferase units (lumens) and the “Percent inhibition (MLV pseudotype infectivity)” value is reported as −68.51%. Further, the “H77-E1E2 number of luciferase units” value in assay [2] is given as 101,702 luciferase units (lumens).

Take MMNWSPTAALVVAQLLRI [Peptide 72]: in assay [1], the “MLV number of luciferase units” value was 392,680 luciferase units (lumens) and the “Percent inhibition (MLV pseudotype infectivity)” value is given as 10.58%. Moreover, the “H77-E1E2 number of luciferase units” value in assay [2] is on record as 75,763 luciferase units (lumens).

PRHHWTTQDCNCSIYPGH [Peptide 68]: in assay [1], the “MLV number of luciferase units” value is recorded as 498,991 luciferase units (lumens) and the “Percent inhibition (MLV pseudotype infectivity)” value is −13.62%. Also, the “H77-E1E2 number of luciferase units” value in assay [2] is reported as 79,297 luciferase units (lumens).

In the case of QDCNCSIYPGHITGHRMA [Peptide 69], in assay [1], the “MLV number of luciferase units” value is recorded as 354,027 luciferase units (lumens) and the “Percent inhibition (MLV pseudotype infectivity)” value was 19.39%. In assay [2], the “H77-E1E2 number of luciferase units” value is 196,922 luciferase units (lumens).

On to RHIDLLVGSATLCSALYV [Peptide 63], for which, in assay [1], the “MLV number of luciferase units” value is 438,440 luciferase units (lumens) and the “Percent inhibition (MLV pseudotype infectivity)” value turned out to be 0.16%. Also, the “H77-E1E2 number of luciferase units” value in assay [2] is given as 57,915 luciferase units (lumens).

For SAYQVRNSSGLYHVTNDC [Peptide 53], in assay [1], the “MLV number of luciferase units” value is 443,528 luciferase units (lumens) and the “Percent inhibition (MLV pseudotype infectivity)” value was −9.95%. Further, the “H77-E1E2 number of luciferase units” value in assay [2] is on record as 113,469 luciferase units (lumens).

Regarding SCLTVPASAYQVRNSSGL [Peptide 52], in assay [1], the “MLV number of luciferase units” value is recorded as 533,179 luciferase units (lumens) and the “Percent inhibition (MLV pseudotype infectivity)” value was −21.4%. For the same substance, in assay [2], the “H77-E1E2 number of luciferase units” value is 133,259 luciferase units (lumens).

Consider SIVYEAADAILHTPGCVP [Peptide 56], for which, in assay [1], the “MLV number of luciferase units” value was 433,459 luciferase units (lumens) and the “Percent inhibition (MLV pseudotype infectivity)” value is 1.30%. The “H77-E1E2 number of luciferase units” value in assay [2] is on record as 65,612 luciferase units (lumens).

As for SSGLYHVTNDCPNSSIVY [Peptide 54], in assay [1], the “MLV number of luciferase units” value is 280,113 luciferase units (lumens) and the “Percent inhibition (MLV pseudotype infectivity)” value is on record as 36.22%. Besides, the “H77-E1E2 number of luciferase units” value in assay [2] is 74 luciferase units (lumens).

As to TNDCPNSSVVYEAADAIL [Peptide 55], in assay [1], the “MLV number of luciferase units” value is on record as 447,957 luciferase units (lumens) and the “Percent inhibition (MLV pseudotype infectivity)” value was −2.00%. Besides, the “H77-E1E2 number of luciferase units” value in assay [2] is given as 112,470 luciferase units (lumens).

For VATRDGKLPTTQLRRHID [Peptide 61], in assay [1], the “MLV number of luciferase units” value is 423,925 luciferase units (lumens) and the “Percent inhibition (MLV pseudotype infectivity)” value turned out to be 3.47%. Also, the “H77-E1E2 number of luciferase units” value in assay [2] is recorded as 148,796 luciferase units (lumens).

Consider VGNWAKVLVVLLLFAGVD [Peptide 78], for which, in assay [1], the “MLV number of luciferase units” value is on record as 402,953 luciferase units (lumens) and the “Percent inhibition (MLV pseudotype infectivity)” value worked out at 8.24%. Besides, the “H77-E1E2 number of luciferase units” value in assay [2] is on record as 137,700 luciferase units (lumens).

As to WVAVTPTVATRDGKLPTT [Peptide 59], in assay [1], the “MLV number of luciferase units” value is 446,063 luciferase units (lumens) and the “Percent inhibition (MLV pseudotype infectivity)” value is reported as −1.57%. In assay [2], the “H77-E1E2 number of luciferase units” value is 91,794 luciferase units (lumens) and the “Percent Inhibition (H77-E1E2 HCV pseudotype infectivity)” value stood at 19.29%.

In the case of WVAVTPTVATRDGKLPTT [Peptide 60], in assay [1], the “MLV number of luciferase units” value was 340,384 luciferase units (lumens) and the “Percent inhibition (MLV pseudotype infectivity)” value stood at 22.49%. Besides, in assay [2], the “H77-E1E2 number of luciferase units” value is recorded as 98,766 luciferase units (lumens) and the “Percent Inhibition (H77-E1E2 HCV pseudotype infectivity)” value was determined as 13.16%.

As for YPGHITGHRMANMMMNW [Peptide 70], in assay [1], the “MLV number of luciferase units” value was 553,120 luciferase units (lumens) and the “Percent inhibition (MLV pseudotype infectivity)” value is −25.95%. Also, the “H77-E1E2 number of luciferase units” value in assay [2] is reported as 15,717 luciferase units (lumens).

Regarding enfuvirtide, the “Inhibition of HIV-1 infectivity” value in the assay with HIV-1 [3] is on record as “inhibit HIV-1 infectivity”. Besides, the “Effect on HIV-1 load in AIDS patients” value in the assay with HIV-1 [4] is listed as “substantially reduce HIV-1 load”.
